Laboratory results published in BindingDB's records for doi:10.3109/14756366.2012.680063 (Rhodes University, 2013).
Residues, ends and D or L forms follow the SMILES beside them.

Key:
[1] = biological target: T1, Superoxide dismutase [Cu-Zn] (Bovine, UniProt P00442); test: SOD Assay (Fluorimetric Analysis); conditions: pH 8; 37 °C
Experimental: SOD activity of the purified samples was determined by the SOD assay kit using (2-(4-iodophenyl)-3-(4nitrophenyl)-5-(2,4-disulphenyl)-2H-tetrazolium, monosodium salt) [WST] which is a colorimetric assay that monitors the rate of inhibition of WST to a water soluble formazan dye.

[2] = biological target: T1, Superoxide dismutase [Cu-Zn]; test: SOD Assay (Kinetic Analysis)

T1 sequence (P00442 whole entry): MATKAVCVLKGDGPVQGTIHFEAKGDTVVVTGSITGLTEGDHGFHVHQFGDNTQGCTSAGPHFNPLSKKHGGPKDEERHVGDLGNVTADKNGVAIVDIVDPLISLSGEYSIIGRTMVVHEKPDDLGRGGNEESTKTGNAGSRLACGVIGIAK

Kd [1] [µM]	Ki [2] [µM]	Structure (SMILES)
9.38	14.4	CC[C@H](C)[C@H](NC(=O)[C@H](C)NC(=O)CNC(=O)[C@H](CCCCN)NC(=O)[C@H](CC(N)=O)NC(=O)[C@H](CO)NC(=O)CN)C(=O)N[C@H](C(=O)NCC(=O)N[C@@H](CC(C)C)C(=O)N[C@@H](CCSC)C(=O)N[C@H](C(=O)NCC(=O)O)C(C)C)[C@@H](C)CC [Aβ (25-37)] (H-GSNKGAIIGLMVG-OH)
15.7	13.2	CC[C@H](C)[C@H](NC(=O)[C@H](C)NC(=O)CN)C(=O)N[C@H](C(=O)NCC(=O)O)[C@@H](C)CC [Aβ (29-33)] (H-GAIIG-OH)
